Test results as given in patent US10201558B2, “Compositions of selenoorganic compounds and methods of use thereof” (Alltech, Inc., priority 2014, dated 2019).
“Also recorded” adds a separate entry of the source.

Tests used:
RCAN1 = assay: QRT-PCR of RCAN1 and RCAN1.1 mRNA in control and FOXO4 KD IMR-32 cells; assay type: cell-based, human; details: 24 hours
Description: (§1) IMR-32 cells were cultured on 12-well plates for 24 hours and then incubated with FOXO4 siRNA lentiviruses (SC-29650V, Santa Cruz) or control siRNA lentiviruses (sc-108080, Santa Cruz) in the presence of Polybrene (5 μg/ml, Santa Cruz) for 24 hours according to the manufacturer's protocol. These lentiviral siRNA-transfected cells were amplified in normal media for 3 days and then incubated with puromycin for 9-14 days to obtain the stable Control KD (stably transfected with the control siRNAs) and FOXO4KD (stably transfected with Foxo4 siRNAs) cells. These control and Foxo4 KD cells were subjected to cell survival, mitochondrial potential and RNA analysis.
(§2) Human IMR-32 cells were seeded on gelatinized 6-well (6.5×10^5 cells/well) or 24-well (1.3×10^5 cells/well) plates. Cells were treated with control (0 ppb) or various compounds for 6 hours or 24 hours. Total RNA from these cells was isolated using Trizol (Invitrogen) according to the manufacturer's protocol, and then incubated with DNase I to remove any potential contaminated genomic DNA. Then RNA samples were subjected to real-time PCR analysis using the Applied-Bioscience's RT kit and predesigned Taqman probes (Invitrogen), as described previously (Lan et al EMBO J 2003). The mRNA levels of UCP1, UCP2, UCP3, SLC25A27 (UCP4), SLC25A14 (UCP5), PSEN1, Nicastrin, GSK3B, MAPK11-14, PPARG, APOE, RCAN1, RCAN1.1, G6PC, INSR, IGF1R and FOXO4 were measured. Three to six samples were analyzed in each treatment group. Data were normalized by Actin B (ACTB) or Glyceraldehyde Phosphate Dehydrogenase (GAPDH) mRNA levels in each sample and are presented as mean±SEM of 3-6 samples.
To investigate whether Compound C can regulate transcription of RCAN1 in a dose-dependent and FOXO4-dependent manner, normal control cells and FOXO4 KD cells were treated with two doses of Compound C for 24 hours, and subjected to QRT-PCR analysis. First a specific RCAN1 Taqman probe that can recognize all RCAN1 mRNA isoforms was used to determine if Compound C can regulate the transcription of RCAN1.
To further determine whether Compound C can regulate the transcription of RCAN1.1 mRNA, the above Compound C-treated RNA samples were subjected to QRT-PCR using a specific RCAN1.1 mRNA Taqman probe.

PSEN1 = assay: Western blot of PSEN1 protein in IMR-32 cells; assay type: cell-based, human; details: 150 ppb, 24 hours
Description: IMR-32 cells were seeded on 6-well plates and then treated with control and various compounds for 6 hours and 24 hours, as described above. After treatments, cells were rinsed with ice-cold PBS and lysed in ice-cold RIPA buffer containing complete proteinase and phosphatase inhibitors (Thermo-Fisher Scientific, Waltham, Mass.) on ice for 30 min Cell lysates were collected using a cell scraper and transfer pipette and then centrifuged at 12000×g for 30 min at 4° C. to remove the DNA pellet and obtain the protein extract. Protein levels in the supernatant of these cell lysates were determined using the Pierce Micro-BCA protein assay kit (Thermo Scientific-Piece Biotechnology, Rockford, Ill.) according to the manufacturer's protocol […]
Positive signals on the membrane blots were detected using Amersham's enhanced chemiluminescence (ECL) Western Blotting Prime Detection reagents (GE healthcare Lifescience, Pittsburgh, Pa.). Images of these luminescence signals on the membrane blots were captured using the LI-COR Odyssey Fc Image system (Lincoln, Nebr.). […] Protein band densities in the Western blots were determined using the Li—COR Image studio software or NIH ImageJ software, and then normalized by ACTB protein level in each sample. […]

MAPK14 = assay: QRT-PCR of MAPK14 mRNA in control and FOXO4 KD IMR-32 cells; assay type: cell-based, human; details: 24 hours
Description: as §1, §2
Normal control cells and FOXO4KD cells were incubated with two doses of Compound C for 24 hours, and subjected to QRT-PCR analysis of the MAPK11-14 genes. The relative mRNA expression of all four MAPK genes in normal control IMR-32 cells was assessed. […] Data in Compound C-treated control and FOXO4 KD cells were normalized by their levels in control and FOXO4KD cells, respectively. Mean±SEM of indicated number of samples in the bar graphs. […]

[1] = test system: Notch signaling molecules; assay: Microarray expression profiles of 65 Notch signaling molecules in APP/PS1 mice; assay type: in vivo, mouse; details: microarray heatmap, 5 control and 6 Compound C treated APP/PS1 mice
Description: To further investigate potential toxic effects of compound on the Notch signaling, microarray analysis was performed. Expression of Notch signaling molecules in the brains of Compound C-treated APP/PS1 mice was analyzed. […] Brain tissues were collected and subjected to microarray analysis. The transcription profiles of 65 Notch receptor signaling (based GO search) related genes were pulled out from the original microarray datasets, and then subjected to unsupervised hierarchical clustering analysis based on arrays (animals) using GeneSpring 13.0 software (Agilent Technologies, Inc.), to generate the heatmap of these gene expression (see FIG. 19). In the heatmap, gene expression levels (normalized by Actb) were shown in color intensity that reflect the expression changes compared to mean value of each gene, where blue, red or yellow colors represent decreased, increased or no change in the level of expression intensity, respectively. The dendogram on the top reflects the extent of similarity of expression profiles between animals.

[2] = FOXO4KD cells, 75 ppb and 150 ppb

C[Se]C[C@H]1O[C@@H](n2cnc3c(N)ncnc32)C(O)C1O (stereo in doubt) [Compound C, 5′-deoxy-5′-methylselenoadenosine]
RCAN1.1 mRNA expression (RCAN1; [2]): not significantly affected
total RCAN1 mRNA levels (RCAN1; [2]): not significantly altered
total RCAN1 mRNA levels (RCAN1; control cells (control siRNA lentiviruses), 75 ppb and 150 ppb): dose-dependent decrease; also recorded: significantly attenuated
RCAN1.1 mRNA expression (RCAN1; control cells, 150 ppb): inhibited
PSEN1 protein levels (PSEN1): significant reduction
MAPK14 mRNA levels (MAPK14; [2]): none of the mRNA levels of the four MAPK genes in FOXO4KD cells were significantly altered
MAPK14 mRNA levels (MAPK14; control KD cells, 75 ppb): trend towards decreased
MAPK14 mRNA levels (MAPK14; control KD cells, 150 ppb): significantly decreased
expression levels of Notch 1-4, RBPJ, Hey1, Hes1, Hey2 and other Notch signaling molecules [1]: did not have obvious change
